Test results: US6552080B1, “Fungicidal compounds having a fluorovinyl-or fluoropropenyl-oxyphenyloxime moiety and process for the preparation thereof” (Korea Research Institute of Chemical Technology, priority 1999, dated 2003)
Read-outs that look alike come from different tables or passages of the source.

Tests used:
Phytophthora infestans = type: in vivo; details: for TLB (Fungicidal Activities, C.V.): Tomato Late Blight
Erysiphae graminis = test: Fungicidal activity against Barley Powdery Mildew (BPM) disease; type: in vivo; details: for BPM (Fungicidal Activities, C.V.): Barley Powdery Mildew
[1] = tested on: Pyricularia oryzae Carvara KA301; type: in vivo; details: for RCV (Fungicidal Activities, C.V.): Rice Blast
Botrytis cinerae = test: Fungicidal activity against Cucumber Gray Mold Rot (CGM) disease; type: in vivo; details: for CGM (Fungicidal Activities, C.V.): Cucumber Gray Mold Rot; for Fungicidal Activities CGM (C.V.): 50 ppm
Puccinia recondita = test: Fungicidal activity against Wheat Leaf Rust (WLR) disease; type: in vivo; details: for WLR (Fungicidal Activities, C.V.): Wheat Leaf Rust
Rhizoctonia solani AG-1 = test: Fungicidal activity against Rice Sheath Blight (RSB) disease; details: for RSB (Fungicidal Activities, C.V.): Rice Sheath Blight

SMILES	TLB (Fungicidal Activities, C.V.) (Phytophthora infestans; concentration 50 ppm)	BPM (Fungicidal Activities, C.V.) (Erysiphae graminis; concentration 2 ppm)	BPM (Fungicidal Activities, C.V.) (Erysiphae graminis; concentration 10 ppm)	BPM (Fungicidal Activities, C.V.) (Erysiphae graminis; concentration 50 ppm)	RCV (Fungicidal Activities, C.V.) ([1]; concentration 50 ppm)	CGM (Fungicidal Activities, C.V.) (Botrytis cinerae; concentration 50 ppm)	WLR (Fungicidal Activities, C.V.) (Puccinia recondita; concentration 2 ppm)	WLR (Fungicidal Activities, C.V.) (Puccinia recondita; concentration 10 ppm)	WLR (Fungicidal Activities, C.V.) (Puccinia recondita; concentration 50 ppm)	RSB (Fungicidal Activities, C.V.) (Rhizoctonia solani AG-1; concentration 50 ppm)	RCV (Fungicidal Activities, C.V.) ([1]; concentration 2 ppm)	TLB (Fungicidal Activities, C.V.) (Phytophthora infestans; concentration 2 ppm)	RCV (Fungicidal Activities, C.V.) ([1]; concentration 10 ppm)	RSB (Fungicidal Activities, C.V.) (Rhizoctonia solani AG-1; concentration 2 ppm)	RSB (Fungicidal Activities, C.V.) (Rhizoctonia solani AG-1; concentration 10 ppm)	also measured
COC=C(C(=O)OC)c1ccccc1CON=Cc1cccc(OC(F)=C(c2cccc(Cl)c2)C(F)(F)F)c1 [Compound 116]	14%	33%	96%	100%	0%	0%	53%	96%	96%	15%						
CNC(=O)C(=NOC)c1ccccc1CON=Cc1cccc(OC(F)=Cc2ccc(F)cc2)c1 [Compound 37]	0%	42%		100%	100%	0%	37%		98%	29%	98%					
CCCCc1ccc(C(=C(F)Oc2cccc(C(C)=NOCc3ccccc3C(=COC)C(=O)OC)c2)C(F)(F)F)cc1 [Compound 156]	0%		91%	92%	33%	36%		95%	93%	20%						
CON=C(C(=O)OC)c1ccccc1CON=Cc1cccc(OC(F)=Cc2ccc(OC)cc2)c1 [Compound 26]	90%			100%	95%	77%			93%	77%						
CNC(=O)/C(=N/OC)c1ccccc1CON=C(C)c1cccc(OC(F)=Cc2ccccc2)c1 [Compound 77]	80%	100%	100%	100%	100%	85%	100%	100%	100%	100%	100%	50%	100%	40%	57%	TLB (Fungicidal Activities, C.V.) (Phytophthora infestans; concentration 10 ppm): 88%; CGM (Fungicidal Activities, C.V.) (Botrytis cinerae; concentration 2 ppm): 21%; CGM (Fungicidal Activities, C.V.) (Botrytis cinerae; concentration 10 ppm): 36%
CON=C(C(=O)OC)c1ccccc1CON=C(C)c1cccc(OC(F)=Cc2ccc(F)cc2)c1 [Compound 74]	56%	100%		100%	100%	72%	99%		100%	100%	100%	12%		25%		
CNC(=O)C(=NOC)c1ccccc1CON=C(C)c1cccc(OC(F)=C(c2cccc(OC)c2)C(F)(F)F)c1 [Compound 197]																Fungicidal Activities TLB (C.V.) (Phytophthora infestans; 2 ppm): 0%; Fungicidal Activities TLB (C.V.) (Phytophthora infestans; 50 ppm): 50%; Fungicidal Activities BPM (C.V.) (Erysiphae graminis; 2 ppm): 100%; Fungicidal Activities BPM (C.V.) (Erysiphae graminis; 50 ppm): 100%; Fungicidal Activities RCV (C.V.) ([1]; 2 ppm): 100%; Fungicidal Activities RCV (C.V.) ([1]; 50 ppm): 100%; Fungicidal Activities CGM (C.V.) (Botrytis cinerae): 85%; Fungicidal Activities WLR (C.V.) (Puccinia recondita; 2 ppm): 98%; Fungicidal Activities WLR (C.V.) (Puccinia recondita; 50 ppm): 100%; Fungicidal Activities RSB (C.V.) (Rhizoctonia solani AG-1; 2 ppm): 35%; Fungicidal Activities RSB (C.V.) (Rhizoctonia solani AG-1; 50 ppm): 80%
COC=C(C(=O)OC)c1ccccc1CON=Cc1cccc(OC(F)=Cc2cccc(C)c2)c1 [Compound 2]	85%	98%	99%	100%	93%	17%	97%	100%	100%	60%	33%		86%			
CNC(=O)C(=NOC)c1ccccc1CON=C(C)c1cccc(OC(F)=C(c2cc(C)cc(C)c2)C(F)(F)F)c1 [Compound 194]																Fungicidal Activities TLB (C.V.) (Phytophthora infestans; 50 ppm): 0%; Fungicidal Activities BPM (C.V.) (Erysiphae graminis; 2 ppm): 0%; Fungicidal Activities BPM (C.V.) (Erysiphae graminis; 50 ppm): 98%; Fungicidal Activities RCV (C.V.) ([1]; 2 ppm): 95%; Fungicidal Activities RCV (C.V.) ([1]; 50 ppm): 100%; Fungicidal Activities CGM (C.V.) (Botrytis cinerae): 16%; Fungicidal Activities WLR (C.V.) (Puccinia recondita; 2 ppm): 20%; Fungicidal Activities WLR (C.V.) (Puccinia recondita; 50 ppm): 98%; Fungicidal Activities RSB (C.V.) (Rhizoctonia solani AG-1; 50 ppm): 64%
CON=C(C(=O)OC)c1ccccc1CON=C(C)c1cccc(OC(F)=Cc2cc(C)cc(C)c2)c1 [Compound 68]	20%	100%	100%	100%	100%	56%	99%	100%	100%	100%	100%		100%	30%	70%	
CON=C(C(=O)OC)c1ccccc1CON=C(C)c1cccc(OC(F)=Cc2cccc(Cl)c2)c1 [Compound 75]	66%	100%		100%	100%	0%	98%		100%	100%	100%	0%		25%		
CO/N=C(/C(=O)OC)c1ccccc1CON=C(C)c1cccc(OC(F)=Cc2ccccc2)c1 [Compound 64]	95%	100%	100%	100%	100%	75%	99%	100%	100%	85%	100%	87%	100%	45%	65%	TLB (Fungicidal Activities, C.V.) (Phytophthora infestans; concentration 10 ppm): 90%
COC=C(C(=O)OC)c1ccccc1CON=C(C)c1cccc(OC(F)=C(c2ccc(C)cc2)C(F)(F)F)c1 [Compound 152]	0%	95%	100%	100%	100%	44%	86%	98%	100%	90%	86%		97%	45%	60%	
